According to publication PMC9287138, “Proteasome activator 28γ (PA28γ) allosterically activates trypsin-like proteolysis by binding to the α-ring of the 20S proteasome” (The Journal of Biological Chemistry, 2022):

Biological target: T1, human 20S proteasome (H20S) (Homo sapiens, UniProt P28074+Q99436)
T1 construct: gene PSMB5; with Proteasome subunit beta type-6 (caspase-like site); Proteasome subunit alpha type-6; Proteasome subunit alpha type-2; Proteasome subunit alpha type-4; Proteasome subunit alpha type-7; Proteasome subunit alpha type-5; Proteasome subunit alpha type-1; Proteasome subunit alpha type-3; Proteasome subunit beta type-3; Proteasome subunit beta type-2; Proteasome subunit beta type-1; Proteasome subunit beta type-4
Test: inhibition of boc-RLR-AMC hydrolysis
Format: biochemical

inhibition at 40 µM: 94 to 100%
Compound: CC(=O)N[C@@H](CC(C)C)C(=O)N[C@@H](CC(C)C)C(=O)N[C@H](C=O)CCCNC(=N)N [leupeptin]
